Results as given in the supplement of paper PMC10307832.

Tests used:
Assay in all cases: relative viability (nuclei count vs DMSO), 5 days (fraction); higher = more cells survive
BAY61-3606 + Decitabine = compound: COC1=C(C=C(C=C1)C2=CC3=NC=CN3C(=N2)NC4=C(C=CC=N4)C(=O)N)OC [BAY61-3606] + Nc1ncn([C@H]2C[C@H](O)[C@@H](CO)O2)c(=O)n1 [Decitabine] (partner 2 µM)
In short: (§1)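 The day after seeding in 1536-well plates, lung cancer cell lines were treated by pin tool with a single drug, or with a fixed anchor-drug dose together with five library-drug doses (not always all listed) in √10 steps. After 5 days, a combined fix-and-stain solution (final 0.05% Triton X-100, 1% formaldehyde, 1 ug/ml Hoechst) was added. Nuclei counted on 4× images gave relative viability as treated counts over vehicle counts, reported as the median of duplicate plates.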

Doxorubicin + AZD7762 = compound: COc1cccc2c1C(=O)c1c(O)c3c(c(O)c1C2=O)C[C@@](O)(C(=O)CO)C[C@@H]3O[C@H]1C[C@H](N)[C@H](O)[C@H](C)O1 [Doxorubicin] + NC(=O)Nc1cc(-c2cccc(F)c2)sc1C(=O)N[C@H]1CCCNC1 [AZD7762] (partner 0.2 µM)
In short: as §1

Doxorubicin + Trametinib = compound: COc1cccc2c1C(=O)c1c(O)c3c(c(O)c1C2=O)C[C@@](O)(C(=O)CO)C[C@@H]3O[C@H]1C[C@H](N)[C@H](O)[C@H](C)O1 [Doxorubicin] + CC(=O)Nc1cccc(-n2c(=O)n(C3CC3)c(=O)c3c(Nc4ccc(I)cc4F)n(C)c(=O)c(C)c32)c1 [Trametinib] (partner 0.02 µM)
In short: as §1

BAY61-3606 + Pictilisib = compound: COC1=C(C=C(C=C1)C2=CC3=NC=CN3C(=N2)NC4=C(C=CC=N4)C(=O)N)OC [BAY61-3606] + CS(=O)(=O)N1CCN(Cc2cc3nc(-c4cccc5[nH]ncc45)nc(N4CCOCC4)c3s2)CC1 [Pictilisib] (partner 1 µM)
In short: as §1

Cell Line	relative viability (BAY61-3606 + Decitabine; first compound 0.02 µM)	relative viability (BAY61-3606 + Decitabine; first compound 0.06325 µM)	relative viability (BAY61-3606 + Decitabine; first compound 0.2 µM)	relative viability (BAY61-3606 + Decitabine; first compound 0.6325 µM)	relative viability (BAY61-3606 + Decitabine; first compound 2 µM)	relative viability (Doxorubicin + AZD7762; first compound 0.001 µM)	relative viability (Doxorubicin + AZD7762; first compound 0.003162 µM)	relative viability (Doxorubicin + AZD7762; first compound 0.01 µM)	relative viability (Doxorubicin + AZD7762; first compound 0.03162 µM)	relative viability (Doxorubicin + AZD7762; first compound 0.1 µM)	relative viability (Doxorubicin + Trametinib; first compound 0.001 µM)	relative viability (Doxorubicin + Trametinib; first compound 0.003162 µM)	relative viability (Doxorubicin + Trametinib; first compound 0.01 µM)	relative viability (Doxorubicin + Trametinib; first compound 0.03162 µM)	relative viability (Doxorubicin + Trametinib; first compound 0.1 µM)	relative viability (BAY61-3606 + Pictilisib; first compound 0.02 µM)	relative viability (BAY61-3606 + Pictilisib; first compound 0.06325 µM)	relative viability (BAY61-3606 + Pictilisib; first compound 0.2 µM)	relative viability (BAY61-3606 + Pictilisib; first compound 0.6325 µM)	relative viability (BAY61-3606 + Pictilisib; first compound 2 µM)
HCC-366	0.379	0.433	0.396	0.354	0.296	0.278	0.234	0.233	0.117	0.0686	0.334	0.363	0.353	0.227	0.325	0.188	0.138	0.107	0.156	0.116
HCC-827	0.327	0.321	0.352	0.317	0.308	0.134	0.214	0.197	0.191	0.174	0.549	0.526	0.533	0.509	0.486	1.03	0.893	1.15	1.09	0.915
HOP-62		0.2	0.228	0.266	0.22	0.533	0.54	0.519	0.527	0.397	0.373	0.389	0.413	0.411	0.373	0.68		0.582	0.783	0.53
IA-LM																0.351	0.393	0.442	0.54	0.496
LC-2-ad	0.849	0.772	0.775	0.778	0.92	0.831	0.781	0.859	0.827	0.725	0.949	0.888	0.924	0.924	0.895	0.405	0.429	0.29	0.468	0.235
LCLC-97TM1	0.223	0.222	0.247	0.223	0.228	0.235	0.218	0.303	0.244	0.211	0.193	0.219	0.15	0.199	0.209	0.272		0.28	0.178	0.179
NCI-H520	0.508	0.67	0.515	0.518	0.557						0.706	0.739	0.616	0.575	0.536	0.316	0.32	0.329	0.261	0.317
NCI-H522	0.68	0.635	0.732	0.742	0.517	0.7	0.745	0.967	0.656	0.918	0.706	0.79	0.76	0.708	0.777					
NCI-H661	0.594	0.546	0.546	0.573	0.534						0.613	0.604	0.488	0.401	0.388	0.422	0.415	0.376	0.383	0.408
NCI-H1299																0.822	0.854	0.844	0.918	0.503
NCI-H1563																0.621	0.579	0.731	0.654	0.653
NCI-H1648	0.423	0.511	0.504		0.445	0.762	0.524	0.741	0.843	0.654	0.474	0.429	0.555	0.492	0.541					
NCI-H1650	0.449	0.444	0.432	0.424	0.387						0.56	0.532	0.433	0.218	0.144	0.728	0.493	0.68	0.564	0.402
NCI-H1703						0.131	0.146	0.146	0.119	0.114						0.27	0.233	0.241	0.256	0.214
NCI-H2009	0.368	0.359	0.352	0.365	0.415						0.294	0.287	0.268	0.171	0.153	0.897	0.849	0.851	0.751	0.52
NCI-H2023	0.221	0.297	0.237	0.266	0.19						0.456	0.513	0.437	0.151	0.11	0.275	0.264	0.277	0.251	0.206
NCI-H2228											0.178	0.533	0.411	0.356	0.165	0.432	0.34	0.421	0.505	0.341
NCI-H2342	0.81	0.853	0.78	0.78	0.831	0.522	0.491	0.485	0.426	0.496	0.901	0.729	0.954	0.685	0.724					
SK-LU-1	0.715	0.725	0.575	0.621	0.428						0.375	0.528	0.445	0.361	0.282	0.628	0.498	0.662	0.515	0.428
SK-MES-1	0.37	0.342	0.377	0.382	0.348						0.563	0.572	0.513	0.283	0.192	0.393	0.337	0.333	0.354	0.315
SW 900	0.452			0.396	0.442		0.647	0.604	0.45	0.358		1.01	0.75	0.623	1.03					
SW 1573	0.526	0.553	0.467	0.511	0.325						0.463	0.589	0.187	0.102	0.067	0.476	0.44	0.464	0.514	0.367
